Source: ChEMBL document CHEMBL3885881, “DrugMatrix”

Species: Rattus norvegicus
Experiment: DrugMatrix - Regimen: Daily Repeat
Type: toxicity, organism-based, Sprague-Dawley
Design: regimen Daily Repeat, gender Male, age 6-8 weeks
Conditions: in vivo, po, route oral GAVAGE, vehicle 100 % WATER; for ABSOLUTE BASOPHIL / ABSOLUTE EOSINOPHIL / ABSOLUTE LYMPHOCYTE / ABSOLUTE MONOCYTE / ABSOLUTE SEGMENTED NEUTROPHIL / BASOPHIL / EOSINOPHIL / ERYTHROCYTE COUNT / HEMATOCRIT / HEMOGLOBIN / LEUKOCYTE COUNT / LYMPHOCYTE / MEAN CORPUSCULAR HEMOGLOBIN / MEAN CORPUSCULAR HEMOGLOBIN CONCENTRATION / MEAN CORPUSCULAR VOLUME / MONOCYTE / NEUTROPHIL / NUCLEATED RED BLOOD CELLS / PLATELET COUNT: tissue Blood; for ALANINE AMINOTRANSFERASE / ALBUMIN / ALKALINE PHOSPHATASE / ASPARTATE AMINOTRANSFERASE / BLOOD UREA NITROGEN / CARBON DIOXIDE / CHLORIDE / CHOLESTEROL / CREATINE PHOSPHOKINASE / CREATININE / GLUCOSE / LACTATE DEHYDROGENASE / LIPASE / PHOSPHORUS / POTASSIUM / SODIUM / TOTAL BILIRUBIN / TOTAL PROTEIN / URIC ACID: tissue Plasma
[1] = 31 mg/kg, 120 h, dose level Low, time 5 day
[2] = 2629 mg/kg, 72 h, dose level High, time 3 day
[3] = 2629 mg/kg, 120 h, dose level High, time 5 day

Nc1ccc(S(=O)(=O)Nc2nccs2)cc1 [SULFATHIAZOLE]
ABSOLUTE BASOPHIL [1]: 0 CELLS/uL
ABSOLUTE EOSINOPHIL [1]: 44 CELLS/uL
ABSOLUTE LYMPHOCYTE [1]: 11208.67 CELLS/uL
ABSOLUTE MONOCYTE [1]: 0 CELLS/uL
ABSOLUTE SEGMENTED NEUTROPHIL [1]: 914 CELLS/uL
BASOPHIL [1]: 0%
EOSINOPHIL [1]: 0.33%
ERYTHROCYTE COUNT [1]: 5.37 x10E6/uL
HEMATOCRIT [1]: 32.6%
HEMOGLOBIN [1]: 12.8 G/DL
LEUKOCYTE COUNT [1]: 12.17 x10E3/uL
LYMPHOCYTE [1]: 92%
MEAN CORPUSCULAR HEMOGLOBIN [1]: 23.87 pg
MEAN CORPUSCULAR HEMOGLOBIN CONCENTRATION [1]: 39.27 G/DL
MEAN CORPUSCULAR VOLUME [1]: 60.87 fL
MONOCYTE [1]: 0%
NEUTROPHIL [1]: 7.67%
NUCLEATED RED BLOOD CELLS [1]: 0 /100WBC
PLATELET COUNT [1]: 967.33 x10E3/uL
ALANINE AMINOTRANSFERASE [1]: 55 u/L
ALBUMIN [1]: 3.97 G/DL
ALKALINE PHOSPHATASE [1]: 332.33 u/L
ASPARTATE AMINOTRANSFERASE [1]: 80.33 u/L
BLOOD UREA NITROGEN [1]: 15.33 mg/dL
CARBON DIOXIDE [1]: 26.67 mmol/L
CHLORIDE [1]: 101.67 MEQ/L
CHOLESTEROL [1]: 68.33 mg/dL
CREATINE PHOSPHOKINASE [1]: 466 u/L
CREATININE [1]: 0.16 mg/dL
GLUCOSE [1]: 230.67 mg/dL
LACTATE DEHYDROGENASE [1]: 161.67 u/L
LIPASE [1]: 8.33 u/L
PHOSPHORUS [1]: 12.43 mg/dL
POTASSIUM [1]: 5.22 MEQ/L
SODIUM [1]: 142.17 MEQ/L
TOTAL BILIRUBIN [1]: 0.13 mg/dL
TOTAL PROTEIN [1]: 5.83 G/DL
URIC ACID [1]: 1.13 mg/dL
ABSOLUTE BASOPHIL [2]: 0 CELLS/uL
ABSOLUTE EOSINOPHIL [2]: 0 CELLS/uL
ABSOLUTE LYMPHOCYTE [2]: 13130 CELLS/uL
ABSOLUTE MONOCYTE [2]: 74.67 CELLS/uL
ABSOLUTE SEGMENTED NEUTROPHIL [2]: 1895.33 CELLS/uL
BASOPHIL [2]: 0%
EOSINOPHIL [2]: 0%
ERYTHROCYTE COUNT [2]: 6.25 x10E6/uL
HEMATOCRIT [2]: 39.77%
HEMOGLOBIN [2]: 15.4 G/DL
LEUKOCYTE COUNT [2]: 15.1 x10E3/uL
LYMPHOCYTE [2]: 87%
MEAN CORPUSCULAR HEMOGLOBIN [2]: 24.67 pg
MEAN CORPUSCULAR HEMOGLOBIN CONCENTRATION [2]: 38.77 G/DL
MEAN CORPUSCULAR VOLUME [2]: 63.6 fL
MONOCYTE [2]: 0.67%
NEUTROPHIL [2]: 12.33%
NUCLEATED RED BLOOD CELLS [2]: 0.33 /100WBC
PLATELET COUNT [2]: 1369.33 x10E3/uL
ALANINE AMINOTRANSFERASE [2]: 62 u/L
ALBUMIN [2]: 3.93 G/DL
ALKALINE PHOSPHATASE [2]: 291 u/L
ASPARTATE AMINOTRANSFERASE [2]: 83 u/L
BLOOD UREA NITROGEN [2]: 13.33 mg/dL
CARBON DIOXIDE [2]: 23.67 mmol/L
CHLORIDE [2]: 105.33 MEQ/L
CHOLESTEROL [2]: 68.67 mg/dL
CREATINE PHOSPHOKINASE [2]: 777 u/L
CREATININE [2]: 0.18 mg/dL
GLUCOSE [2]: 146.67 mg/dL
LACTATE DEHYDROGENASE [2]: 269.33 u/L
LIPASE [2]: 9.33 u/L
PHOSPHORUS [2]: 12.5 mg/dL
POTASSIUM [2]: 5.42 MEQ/L
SODIUM [2]: 148.07 MEQ/L
TOTAL BILIRUBIN [2]: 0.1 mg/dL
TOTAL PROTEIN [2]: 5.7 G/DL
URIC ACID [2]: 2.33 mg/dL
ABSOLUTE BASOPHIL [3]: 0 CELLS/uL
ABSOLUTE EOSINOPHIL [3]: 30.33 CELLS/uL
ABSOLUTE LYMPHOCYTE [3]: 11698 CELLS/uL
ABSOLUTE MONOCYTE [3]: 241.67 CELLS/uL
ABSOLUTE SEGMENTED NEUTROPHIL [3]: 1363.33 CELLS/uL
BASOPHIL [3]: 0%
EOSINOPHIL [3]: 0.33%
ERYTHROCYTE COUNT [3]: 6.23 x10E6/uL
HEMATOCRIT [3]: 38.77%
HEMOGLOBIN [3]: 14.67 G/DL
LEUKOCYTE COUNT [3]: 13.33 x10E3/uL
LYMPHOCYTE [3]: 87%
MEAN CORPUSCULAR HEMOGLOBIN [3]: 23.53 pg
MEAN CORPUSCULAR HEMOGLOBIN CONCENTRATION [3]: 37.83 G/DL
MEAN CORPUSCULAR VOLUME [3]: 62.27 fL
MONOCYTE [3]: 2%
NEUTROPHIL [3]: 10.67%
NUCLEATED RED BLOOD CELLS [3]: 0.33 /100WBC
PLATELET COUNT [3]: 1447 x10E3/uL
ALANINE AMINOTRANSFERASE [3]: 59.33 u/L
ALBUMIN [3]: 4.2 G/DL
ALKALINE PHOSPHATASE [3]: 266.67 u/L
ASPARTATE AMINOTRANSFERASE [3]: 58 u/L
BLOOD UREA NITROGEN [3]: 14.33 mg/dL
CARBON DIOXIDE [3]: 21.33 mmol/L
CHLORIDE [3]: 105 MEQ/L
CHOLESTEROL [3]: 64.33 mg/dL
CREATINE PHOSPHOKINASE [3]: 224.67 u/L
CREATININE [3]: 0.24 mg/dL
GLUCOSE [3]: 148.67 mg/dL
LACTATE DEHYDROGENASE [3]: 185.33 u/L
LIPASE [3]: 11.33 u/L
PHOSPHORUS [3]: 9.7 mg/dL
POTASSIUM [3]: 5.17 MEQ/L
SODIUM [3]: 145.03 MEQ/L
TOTAL BILIRUBIN [3]: 0.1 mg/dL
TOTAL PROTEIN [3]: 6 G/DL
URIC ACID [3]: 1.37 mg/dL
